Data reported in US8754057B2, “Inhibition of apoptosis-specific eIF-5A(eIF-5A1″) with antisense oligonucleotides and siRNA as anti-inflammatory therapeutics” (Senesco Technologies, Inc., priority 2003, dated 2014).

Test system: lamina cribrosa cell line #506
Experiment: TUNEL labeling of siRNA-transfected LC cells treated with TNF-α and camptothecin
Type: cell-based, human
Conditions: LC #506, TNF-α and camptothecin 24 h
Experimental: Lamina cribrosa cell line #506 cells were seeded at 7500 cells per well onto an 8-well culture slide. Three days later the LC cells were transfected with either apoptosis-specific eIF-5A siRNA #1 (SEQ ID NO:30) or control siRNA #5 (SEQ ID NO:34). 72 hours after transfection, the transfected cells were treated with 10 ng/ml TNF-α plus 50 μM camptothecin. Twenty-four hours later the cells were stained with Hoescht 33258 and DNA fragmentation was evaluated in situ using the terminal deoxynucleotidyl transferase-mediated dUTP-digoxigenin nick end labeling (TUNEL) method. Panel A represents the slide observed by fluorescence microscopy using a fluorescein filter to visualize TUNEL-labeling of the fragmented DNA of apoptotic cells. Panel B represents the same slide observed by through a UV filter to visualize the Hoescht-stained nuclei. The results are representative of two independent experiments. All pictures were taken at 400 times magnification.
Transfected cells that had been treated with TNF-α and camptothecin for 24 hours were stained with Hoescht 33258 in order to determine the percentage of cells undergoing apoptosis. Briefly, cells were fixed with a 3:1 mixture of absolute methanol and glacial acetic acid and then incubated with Hoescht stain (0.5 μg/ml Hoescht 33258 in PBS). After a 10 minute incubation in the dark, the staining solution was discarded, the chambers separating the wells of the culture slide were removed, and the slide was washed 3 times for 1 minute with deionized water. After washing, a few drops of Mcllvaine's buffer (0.021 M citric acid, 0.058 M Na2HPO4.7H2O; pH 5.6) was added to the cells and overlaid with a coverslip. The stained cells were viewed under a fluorescent microscope using a UV filter. Cells with brightly stained or fragmented nuclei were scored as apoptotic. A minimum of 200 cells were counted per well. The DeadEnd™ Fluorometric TUNEL (Promega) was also used to detect the DNA fragmentation that is a characteristic feature of apoptotic cells. Following Hoescht staining, the culture slide was washed briefly with distilled water, and further washed by immersing the slide twice for 5 minutes in PBS (137 mM NaCl, 2.68 mM KCl, 1.47 mM KH2PO4, 8.1 mM Na2HPO4), blotting the slide on paper towel between washes. The cells were permeabilized by immersing them in 0.2% Triton X-100 in PBS for 5 minutes. The cells were then washed again by immersing the slide twice for 5 minutes in PBS and blotting the slide on paper towel between washes. 25 μl of equilibration buffer [200 mM potassium cacodylate (pH 6.6), 25 mM. Tris-HCl (pH 6.6), 0.2 mM dithiothreitol, 0.25 mg/ml bovine serum albumin, and 2.5 mM cobalt chloride] was added per well and incubated for 5 to 10 minutes. […] Any cells with brightly stained or fragmented nuclei were scored as apoptotic. […]

## siRNA #1: siRNA against human apoptosis-specific eIF-5A (SEQ ID NO:30); target 5′ AAAGGAATGACTTCCAGCTGA 3′ (SEQ ID NO: 81) (AAAGGAAUGACUUCCAGCUGATT; RNA, all phosphodiester, T or U not given here; listed as Homo sapiens)
3 days after transfection
  LC cells positive for TUNEL staining: 8%
TUNEL
  protection from apoptosis relative to the control siRNA: greater than 80%
